From patent US8952024B2, “Herbicidal pyrimidone derivatives” (E I du Pont de Nemours and Company, priority 2009, dated 2015)
Read-outs that look alike come from different tables or passages of the source.

Legend:
Assay type in all cases: in vivo
[1] = system: barnyardgrass (Echinochloa crus-galli); assay: Test A pre-/postemergence plant response; conditions: Echinochloa crus-galli, 240 h; for pest or weed control at 125 g/ha: 125 g ai/ha; for pest or weed control at 500 g/ha: 500 g ai/ha
Procedure, shortened: (§1)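 Formulated test chemicals (non-phytotoxic solvent, surfactant) were sprayed onto soil right after planting and simultaneously onto young plants at one to two leaves, 2 to 10 cm tall. Plants stayed in the greenhouse about ten days; injury was then visually scored against untreated controls, from 0 (no effect) to 100 (complete control).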

corn (Zea mays) = assay: Test A pre-/postemergence plant response; conditions: Zea mays, 240 h; for Corn plant response rating (crop injury, 0 = no effect, 100 = complete kill) at 500 g/ha: 500 g ai/ha
Procedure, shortened: as §1

[2] = system: giant foxtail (Setaria faberii); assay: Test A pre-/postemergence plant response; conditions: Setaria faberi, 240 h; for pest or weed control at 125 g/ha: 125 g ai/ha; for pest or weed control at 500 g/ha: 500 g ai/ha
Procedure, shortened: as §1

[3] = system: large crabgrass (Digitaria sanguinalis); assay: Test A pre-/postemergence plant response; conditions: Digitaria sanguinalis, 240 h; for pest or weed control at 125 g/ha: 125 g ai/ha; for pest or weed control at 500 g/ha: 500 g ai/ha
Procedure, shortened: as §1

[4] = system: morningglory (Ipomoea spp.); assay: Test A pre-/postemergence plant response; conditions: Ipomoea, 240 h; for pest or weed control at 125 g/ha: 125 g ai/ha; for pest or weed control at 500 g/ha: 500 g ai/ha
Procedure, shortened: as §1

[5] = system: pigweed (Amaranthus retroflexus); assay: Test A pre-/postemergence plant response; conditions: Amaranthus retroflexus, 240 h; for pest or weed control at 125 g/ha: 125 g ai/ha; for pest or weed control at 500 g/ha: 500 g ai/ha
Procedure, shortened: as §1

[6] = system: velvetleaf (Abutilon theophrasti); assay: Test A pre-/postemergence plant response; conditions: Abutilon theophrasti, 240 h; for pest or weed control at 125 g/ha: 125 g ai/ha; for pest or weed control at 500 g/ha: 500 g ai/ha
Procedure, shortened: as §1

[7] = system: wheat (Triticum aestivum); assay: Test A pre-/postemergence plant response; conditions: Triticum aestivum, 240 h; for plant injury at 125 g/ha: 125 g ai/ha; for plant injury at 500 g/ha: 500 g ai/ha
Procedure, shortened: as §1

[8] = system: canarygrass (Phalaris minor); assay: Test B postemergence plant response; conditions: Postemergence
From the text: (§2) At the same time, plants selected from these crop and weed species and also winter barley (Hordeum vulgare), canarygrass (Phalaris minor), chickweed (Stellaria media) and windgrass (Apera spica-venti) were planted in pots containing Redi-Earth® planting medium (Scotts Company, 14111 Scottslawn Road, Marysville, Ohio 43041) comprising spaghnum peat moss, vermiculite, wetting agent and starter nutrients and treated with postemergence applications of some of the test chemicals formulated in the same manner. Plants ranged in height from 2 to 18 cm (1- to 4-leaf stage) for postemergence treatments.
(§3) Treated plants and controls were maintained in a greenhouse for 13 to 15 days, after which time all treated plants were visually evaluated and compared to controls. Plant response ratings, summarized in Table B, are based on a scale of 0 to 100 where 0 is no effect and 100 is complete control. A dash (-) response means no test result.

[9] = system: chickweed (Stellaria media); assay: Test B postemergence plant response; conditions: Postemergence
From the text: as §2, §3

[10] = system: windgrass (Apera spica-venti); assay: Test B postemergence plant response; conditions: Postemergence
From the text: as §2, §3

[11] = system: winter barley (Hordeum vulgare); assay: Test B postemergence plant response; conditions: Postemergence
From the text: as §2, §3

COc1ccc(-n2c(-c3ccccc3)ncc(C(=O)C3=C(O)CCCC3=O)c2=O)cc1 [Compound 4, 5-[(2-hydroxy-6-oxo-cyclohexen-1-yl)carbonyl]-3-(4-methoxyphenyl)-2-phenyl-4(3H)-pyrimidinone]
75: Windgrass plant response rating ([10]; 250 g ai/ha, scale 0 to 100)
10%: pest or weed control at 125 g/ha ([1]; pre-emergence, Preemergence, 0 to 100 scale, 0 = no effect, 100 = complete control, read-out: Plant response rating, Barnyardgrass) | plant injury at 125 g/ha (corn (Zea mays); post-emergence, Postemergence, 125 g ai/ha, visual injury, 0 to 100 scale (0 no effect, 100 complete control), approx. ten days, read-out: Corn plant response rating) | pest or weed control at 125 g/ha ([2]; pre-emergence, Preemergence, 0 to 100 scale, 0 = no effect, 100 = complete control, read-out: Plant response rating, Foxtail, Giant) | pest or weed control at 31 g/ha ([8]; Phalaris minor, post-emergence, 360 h, 31 g ai/ha, scale 0 to 100 (0 no effect, 100 complete control), read-out: Plant response rating, Canarygrass)
10: Barley plant response rating ([11]; 250 g ai/ha, scale 0 to 100)
100: Chickweed plant response rating ([9]; 250 g ai/ha, scale 0 to 100)
0%: Corn plant response rating (crop injury, 0 = no effect, 100 = complete kill) at 125 g/ha (corn (Zea mays); pre-emergence, Preemergence, 125 g ai/ha, 0 to 100 scale, 0 = no effect, 100 = complete control) | pest or weed control at 125 g/ha ([4]; pre-emergence, Preemergence, 0 to 100 scale, 0 = no effect, 100 = complete control, read-out: Plant response rating, Morningglory) | plant injury at 125 g/ha ([7]; post-emergence, Postemergence, visual injury, 0 to 100 scale (0 no effect, 100 complete control), approx. ten days, read-out: Wheat plant response rating) | plant injury at 125 g/ha ([7]; pre-emergence, Preemergence, 0 to 100 scale, 0 = no effect, 100 = complete control, read-out: Plant response rating, Wheat) | plant injury at 31 g/ha ([11]; Hordeum vulgare, post-emergence, 31 g ai/ha, scale 0 to 100 (0 no effect, 100 complete control), read-out: Plant response rating, Barley) | plant injury at 62 g/ha ([11]; Hordeum vulgare, post-emergence, 62 g ai/ha, scale 0 (no effect) to 100 (complete control), 13 to 15 days, read-out: Plant response rating, Barley) | plant injury at 125 g/ha ([11]; Hordeum vulgare, post-emergence, 125 g ai/ha, scale 0 to 100 (0 no effect, 100 complete control), 13 to 15 days, read-out: Plant response rating, Barley)
90%: pest or weed control at 125 g/ha ([1]; post-emergence, Postemergence, visual injury, 0 to 100 scale (0 no effect, 100 complete control), approx. ten days, read-out: Barnyardgrass plant response rating) | pest or weed control at 500 g/ha ([2]; post-emergence, Postemergence, 0 to 100 scale, 0 = no effect, 100 = complete control, approx. ten days, read-out: Plant response rating, Foxtail, Giant) | pest or weed control at 500 g/ha ([3]; post-emergence, Postemergence, 0 to 100 scale, 0 = no effect, 100 = complete control, approx. ten days, read-out: Plant response rating, Crabgrass, Large) | pest or weed control at 500 g/ha ([3]; pre-emergence, Preemergence, visual injury, 0 to 100 scale (0 no effect, 100 complete control), approx. ten days, read-out: Plant response rating, Crabgrass, Large) | pest or weed control at 125 g/ha ([5]; pre-emergence, Preemergence, 0 to 100 scale, 0 = no effect, 100 = complete control, read-out: Plant response rating, Pigweed) | pest or weed control at 500 g/ha ([5]; pre-emergence, Preemergence, visual injury, 0 to 100 scale (0 no effect, 100 complete control), approx. ten days, read-out: Plant response rating, Pigweed)
40%: pest or weed control at 125 g/ha ([6]; pre-emergence, Preemergence, 0 to 100 scale, 0 = no effect, 100 = complete control, read-out: Plant response rating, Velvetleaf)
75%: pest or weed control at 125 g/ha ([8]; Phalaris minor, post-emergence, 360 h, 125 g ai/ha, visual rating after 13 to 15 days, scale 0 (no effect) to 100 (complete control))
70%: pest or weed control at 500 g/ha ([1]; pre-emergence, Preemergence, visual injury, 0 to 100 scale (0 no effect, 100 complete control), approx. ten days, read-out: Plant response rating, Barnyardgrass) | pest or weed control at 500 g/ha ([2]; pre-emergence, Preemergence, visual injury, 0 to 100 scale (0 no effect, 100 complete control), approx. ten days, read-out: Plant response rating, Foxtail, Giant) | pest or weed control at 125 g/ha ([3]; post-emergence, Postemergence, visual injury, 0 to 100 scale (0 no effect, 100 complete control), approx. ten days, read-out: Crabgrass, Large plant response rating) | pest or weed control at 500 g/ha ([4]; pre-emergence, Preemergence, visual injury, 0 to 100 scale (0 no effect, 100 complete control), approx. ten days, read-out: Plant response rating, Morningglory)
55%: pest or weed control at 62 g/ha ([10]; Apera spica-venti, post-emergence, 360 h, 62 g ai/ha, scale 0 (no effect) to 100 (complete control), 13 to 15 days, read-out: Plant response rating, Windgrass)
20%: Corn plant response rating (crop injury, 0 = no effect, 100 = complete kill) at 500 g/ha (corn (Zea mays); pre-emergence, Preemergence, visual injury, 0 to 100 scale (0 no effect, 100 complete control), approx. ten days) | pest or weed control at 125 g/ha ([3]; pre-emergence, Preemergence, 0 to 100 scale, 0 = no effect, 100 = complete control, read-out: Plant response rating, Crabgrass, Large) | plant injury at 500 g/ha ([7]; pre-emergence, Preemergence, visual injury, 0 to 100 scale (0 no effect, 100 complete control), approx. ten days, read-out: Plant response rating, Wheat) | pest or weed control at 62 g/ha ([8]; Phalaris minor, post-emergence, 360 h, 62 g ai/ha, scale 0 (no effect) to 100 (complete control), 13 to 15 days, read-out: Plant response rating, Canarygrass)
60%: plant injury at 500 g/ha ([7]; post-emergence, Postemergence, 0 to 100 scale, 0 = no effect, 100 = complete control, approx. ten days, read-out: Plant response rating, Wheat) | pest or weed control at 125 g/ha ([10]; Apera spica-venti, post-emergence, 360 h, 125 g ai/ha, visual rating after 13 to 15 days, scale 0 (no effect) to 100 (complete control))
80: Canarygrass plant response rating ([8]; 250 g ai/ha, scale 0 to 100)
50%: Corn plant response rating (crop injury, 0 = no effect, 100 = complete kill) at 500 g/ha (corn (Zea mays); post-emergence, Postemergence, 0 to 100 scale, 0 = no effect, 100 = complete control, approx. ten days) | pest or weed control at 31 g/ha ([10]; Apera spica-venti, post-emergence, 360 h, 31 g ai/ha, scale 0 to 100 (0 no effect, 100 complete control), read-out: Plant response rating, Windgrass)
100%: pest or weed control at 500 g/ha ([1]; post-emergence, Postemergence, 0 to 100 scale, 0 = no effect, 100 = complete control, approx. ten days, read-out: Plant response rating, Barnyardgrass) | pest or weed control at 125 g/ha ([4]; post-emergence, Postemergence, visual injury, 0 to 100 scale (0 no effect, 100 complete control), approx. ten days, read-out: Morningglory plant response rating) | pest or weed control at 500 g/ha ([4]; post-emergence, Postemergence, 0 to 100 scale, 0 = no effect, 100 = complete control, approx. ten days, read-out: Plant response rating, Morningglory) | pest or weed control at 125 g/ha ([5]; post-emergence, Postemergence, visual injury, 0 to 100 scale (0 no effect, 100 complete control), approx. ten days, read-out: Pigweed plant response rating) | pest or weed control at 500 g/ha ([5]; post-emergence, Postemergence, 0 to 100 scale, 0 = no effect, 100 = complete control, approx. ten days, read-out: Plant response rating, Pigweed) | pest or weed control at 125 g/ha ([6]; post-emergence, Postemergence, visual injury, 0 to 100 scale (0 no effect, 100 complete control), approx. ten days, read-out: Velvetleaf plant response rating) | pest or weed control at 500 g/ha ([6]; post-emergence, Postemergence, 0 to 100 scale, 0 = no effect, 100 = complete control, approx. ten days, read-out: Plant response rating, Velvetleaf) | pest or weed control at 500 g/ha ([6]; pre-emergence, Preemergence, visual injury, 0 to 100 scale (0 no effect, 100 complete control), approx. ten days, read-out: Plant response rating, Velvetleaf) | pest or weed control at 31 g/ha ([9]; Stellaria media, post-emergence, 360 h, 31 g ai/ha, scale 0 to 100 (0 no effect, 100 complete control), read-out: Plant response rating, Chickweed) | pest or weed control at 62 g/ha ([9]; Stellaria media, post-emergence, 360 h, 62 g ai/ha, scale 0 (no effect) to 100 (complete control), 13 to 15 days, read-out: Plant response rating, Chickweed) | pest or weed control at 125 g/ha ([9]; Stellaria media, post-emergence, 360 h, 125 g ai/ha, visual rating after 13 to 15 days, scale 0 (no effect) to 100 (complete control))
80%: pest or weed control at 125 g/ha ([2]; post-emergence, Postemergence, visual injury, 0 to 100 scale (0 no effect, 100 complete control), approx. ten days, read-out: Foxtail, Giant plant response rating)
